The text below walks through data of ChEMBL document CHEMBL4118148, “Design, synthesis and cardiovascular evaluation of some aminoisopropanoloxy derivatives of xanthone” (Bioorg Med Chem, 2018).

Active and inactive are the calls of the source. The calls are words filed in the database; no cut-off is given here.

The subject of series [1] is Rattus norvegicus. Kind of series: Hypotensive activity in normotensive Wistar rat assessed as reduction in systolic blood pressure at 1 mg/kg, iv measured over 40th min relative to control. The class given is functional. Also on record: scale not given: the % may be the effect or the level left.
Series [2] concerns the target Beta-1 adrenergic receptor (Rattus norvegicus) (UniProt P18090). Nature of the series: Displacement of [3H]-CGP-12177 from adrenergic beta1 receptor in Wistar rat cortex at 10^-5 M incubated for 60 mins by microbeta liquid scintillation counting analysis. A general note: In a radioligand displacement assay an active substance lowers the binding of a labelled ligand.

Series [3] concerns Rattus norvegicus. Kind of series: Hypotensive activity in normotensive Wistar rat assessed as systolic blood pressure at 0.5 mg/kg, iv measured after 30 mins (reference value: 147.7 +/- 5.9 mmHg). Format: functional.
Series [4] relates to Rattus norvegicus. Nature of the series: Hypotensive activity in normotensive Wistar rat assessed as systolic blood pressure at 0.5 mg/kg, iv measured after 10 mins (reference value: 116 +/- 4.6 mmHg). Format: functional.
For series [5], the system named is Rattus norvegicus. Nature of the series: Hypotensive activity in normotensive Wistar rat assessed as systolic blood pressure at 0.5 mg/kg, iv measured after 20 mins (reference value: 147.7 +/- 5.9 mmHg). The class given is functional.
The subject of series [6] is Rattus norvegicus. Kind of series: Hypotensive activity in normotensive Wistar rat assessed as systolic blood pressure at 0.5 mg/kg, iv measured after 5 mins (reference value: 147.7 +/- 5.9 mmHg). Format: functional.
Series [7] concerns Rattus norvegicus. Kind of series: Hypotensive activity in normotensive Wistar rat assessed as systolic blood pressure at 0.5 mg/kg, iv measured after 10 mins (reference value: 147.7 +/- 5.9 mmHg). Format: functional.
The test system of series [8] is Rattus norvegicus. Kind of series: Hypotensive activity in normotensive Wistar rat assessed as reduction in systolic blood pressure at 0.5 mg/kg, iv measured over 30 mins relative to control. The class given is functional. The arrangement: scale not given: the % may be the effect or the level left.
Series [9] deals with Rattus norvegicus. Kind of series: Hypotensive activity in normotensive Wistar rat assessed as systolic blood pressure at 0.5 mg/kg, iv measured after 5 mins (reference value: 116 +/- 4.6 mmHg). Format: functional.
Series [10] has as its system Rattus norvegicus. Nature of the series: Hypotensive activity in normotensive Wistar rat assessed as systolic blood pressure at 0.5 mg/kg, iv measured after 60 mins (reference value: 116 +/- 4.6 mmHg). The class given is functional.
In series [11] the test system is Rattus norvegicus. Kind of series: Hypotensive activity in normotensive Wistar rat assessed as reduction in diastolic blood pressure at 0.5 mg/kg, iv measured over 30 mins relative to control. The arrangement: scale not given: the % may be the effect or the level left. Format: functional.
For series [12], the system named is Rattus norvegicus. Nature of the series: Hypotensive activity in normotensive Wistar rat assessed as systolic blood pressure at 0.5 mg/kg, iv measured after 60 mins (reference value: 147.7 +/- 5.9 mmHg). Format: functional.
The test system of series [13] is Rattus norvegicus. Kind of series: Hypotensive activity in normotensive Wistar rat assessed as reduction in diastolic blood pressure at 1 mg/kg, iv measured over 30 mins relative to control. The class given is functional. Also on record: scale not given: the % may be the effect or the level left.
The subject of series [14] is Rattus norvegicus. Kind of series: Hypotensive activity in normotensive Wistar rat assessed as reduction in systolic blood pressure administered iv measured after 60 mins. The class given is functional. Also on record: scale not given: the % may be the effect or the level left.
Series [15] has as its system Rattus norvegicus. Kind of series: Hypotensive activity in normotensive Wistar rat assessed as diastolic blood pressure at 2.5 mg/kg, iv measured after 20 mins (reference value: 116.2 +/- 1.2 mmHg). Format: functional.
In a further series the test system is Blood. Nature of the series: Anti-aggregative activity in Wistar rat whole blood assessed as inhibition of collagen-induced aggregation up to 100 uM preincubated for 3 mins followed by collagen induction measured for 6 mins. Format: functional, tissue-based.
Series [16] has as its system Rattus norvegicus. Nature of the series: Hypotensive activity in normotensive Wistar rat assessed as reduction in diastolic blood pressure at 2.5 mg/kg, iv measured after 5 to 10 mins relative to control. Format: functional. Also on record: scale not given: the % may be the effect or the level left.
Series [17] deals with Rattus norvegicus. Nature of the series: Hypotensive activity in normotensive Wistar rat assessed as diastolic blood pressure at 2.5 mg/kg, iv measured after 10 mins (reference value: 116.2 +/- 1.2 mmHg). Format: functional.
Series [18] relates to Rattus norvegicus. Nature of the series: Hypotensive activity in normotensive Wistar rat assessed as systolic blood pressure at 2.5 mg/kg, iv measured after 30 mins (reference value: 148.5 +/- 2.6 mmHg). The class given is functional.
The subject of series [19] is Rattus norvegicus. Nature of the series: Hypotensive activity in normotensive Wistar rat assessed as diastolic blood pressure at 2.5 mg/kg, iv measured after 60 mins (reference value: 116.2 +/- 1.2 mmHg). Format: functional.
Series [20] concerns Rattus norvegicus. Kind of series: Hypotensive activity in normotensive Wistar rat assessed as diastolic blood pressure at 2.5 mg/kg, iv measured after 30 mins (reference value: 116.2 +/- 1.2 mmHg). The class given is functional.
Series [21] concerns Rattus norvegicus. Kind of series: Hypotensive activity in normotensive Wistar rat assessed as systolic blood pressure at 2.5 mg/kg, iv measured after 10 mins (reference value: 148.5 +/- 2.6 mmHg). Format: functional.
Series [22] relates to Rattus norvegicus. Nature of the series: Hypotensive activity in normotensive Wistar rat assessed as systolic blood pressure at 2.5 mg/kg, iv measured after 5 mins (reference value: 148.5 +/- 2.6 mmHg). The class given is functional.
The test system of series [23] is Rattus norvegicus. Kind of series: Hypotensive activity in normotensive Wistar rat assessed as reduction in systolic blood pressure at 2.5 mg/kg, iv measured after 5 to 10 mins relative to control. The class given is functional. The arrangement: scale not given: the % may be the effect or the level left.
The subject of series [24] is Rattus norvegicus. Nature of the series: Cardiotoxicity in Wistar rat assessed as effect on QRS interval time at 1 mg/kg, iv measured after 15 mins (reference value: 19.4 +/- 0.9 ms). The class given is toxicity, organism-based. The settings on record: in vivo, 0.25 h.
Series [25] concerns Rattus norvegicus. Kind of series: Cardiotoxicity in Wistar rat assessed as effect on QT interval time at 1 mg/kg, iv measured after 15 mins (reference value: 59.2 +/- 0.5 ms). Format: toxicity, organism-based. The settings on record: in vivo, 0.25 h.
The test system of series [26] is Rattus norvegicus. Kind of series: Cardiotoxicity in Wistar rat assessed as effect on QTC interval time at 1 mg/kg, iv measured after 5 mins (reference value: 137.7 +/- 2 ms). Format: toxicity, organism-based. The settings on record: in vivo.
In series [27] the test system is Rattus norvegicus. Kind of series: Cardiotoxicity in Wistar rat assessed as effect on QTC interval time at 1 mg/kg, iv measured after 15 mins (reference value: 137.7 +/- 2 ms). The settings on record: in vivo, 0.25 h. The class given is toxicity, organism-based.
For series [28], the system named is Rattus norvegicus. Kind of series: Cardiotoxicity in Wistar rat assessed as effect on QT interval time at 1 mg/kg, iv measured after 5 mins (reference value: 59.2 +/- 0.5 ms). The class given is toxicity, organism-based. The settings on record: in vivo.
For series [29], the system named is Rattus norvegicus. Nature of the series: Cardiotoxicity in Wistar rat assessed as effect on PQ interval time at 1 mg/kg, iv measured after 1 min (reference value: 56.8 +/- 1.8 ms). Format: toxicity, organism-based. The settings on record: in vivo.
Series [30] concerns Rattus norvegicus. Nature of the series: Cardiotoxicity in Wistar rat assessed as effect on heart rate at 1 mg/kg, iv measured after 15 mins (reference value: 320.6 +/- 8.1 bpm). The class given is toxicity, organism-based. The settings on record: in vivo, 0.25 h.
Series [31] deals with Rattus norvegicus. Kind of series: Cardiotoxicity in Wistar rat assessed as effect on QT interval time at 1 mg/kg, iv measured after 1 min (reference value: 59.2 +/- 0.5 ms). Format: toxicity, organism-based. The settings on record: in vivo.
Series [32] has as its system Rattus norvegicus. Nature of the series: Hypotensive activity in normotensive Wistar rat assessed as reduction in systolic blood pressure at 1 mg/kg, iv measured after 30 to 60 mins relative to control. Format: functional. The arrangement: scale not given: the % may be the effect or the level left.
The subject of series [33] is Rattus norvegicus. Kind of series: Cardiotoxicity in Wistar rat assessed as effect on QTC interval time at 1 mg/kg, iv measured after 1 min (reference value: 137.7 +/- 2 ms). The class given is toxicity, organism-based. The settings on record: in vivo.
Series [34] relates to Rattus norvegicus. Nature of the series: Cardiotoxicity in Wistar rat assessed as effect on QRS interval time at 1 mg/kg, iv measured after 1 min (reference value: 19.4 +/- 0.9 ms). The class given is toxicity, organism-based. The settings on record: in vivo.
Series [35] deals with Rattus norvegicus. Nature of the series: Cardiotoxicity in Wistar rat assessed as effect on PQ interval time at 1 mg/kg, iv measured after 15 mins (reference value: 56.8 +/- 1.8 ms). Format: toxicity, organism-based. The settings on record: in vivo, 0.25 h.
Series [36] relates to Rattus norvegicus. Nature of the series: Cardiotoxicity in Wistar rat assessed as effect on QRS interval time at 1 mg/kg, iv measured after 5 mins (reference value: 19.4 +/- 0.9 ms). Format: toxicity, organism-based. The settings on record: in vivo.

Beta-1 adrenergic receptor (Rattus norvegicus), sequence (P18090 whole entry, looked up): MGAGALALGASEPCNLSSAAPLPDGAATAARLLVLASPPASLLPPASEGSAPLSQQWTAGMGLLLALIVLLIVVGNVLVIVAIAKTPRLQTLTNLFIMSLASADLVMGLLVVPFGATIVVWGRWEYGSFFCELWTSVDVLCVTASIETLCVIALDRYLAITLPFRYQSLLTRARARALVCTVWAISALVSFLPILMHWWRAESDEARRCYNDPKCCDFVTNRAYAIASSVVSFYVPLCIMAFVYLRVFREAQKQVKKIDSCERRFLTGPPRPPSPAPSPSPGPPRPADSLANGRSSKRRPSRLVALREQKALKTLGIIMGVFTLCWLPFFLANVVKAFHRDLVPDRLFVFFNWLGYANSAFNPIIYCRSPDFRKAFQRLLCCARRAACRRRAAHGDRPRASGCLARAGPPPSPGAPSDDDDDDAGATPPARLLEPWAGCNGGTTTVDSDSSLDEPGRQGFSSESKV

`Cl.O=c1c2ccccc2oc2cc(OCC(O)CN3CCN(c4ccccn4)CC3)ccc12` (racemic): the Activity in the series on Rattus norvegicus [1] is reported as 8 - 10%. For the same compound, the result in series [2] was inactive.

Regarding `Cl.O=c1c2ccccc2oc2c(OCC(O)CN3CCN(c4ccccn4)CC3)cccc12` (racemic), the Activity is reported as 137.7 mmHg with Rattus norvegicus [3]; 114.3 mmHg in the series on Rattus norvegicus [4]; 143 mmHg with Rattus norvegicus [5]; 146.7 mmHg with Rattus norvegicus [6]; 144 mmHg in the series on Rattus norvegicus [7]; 7 - 11% in the series on Rattus norvegicus [8]. The Activity in the series with Rattus norvegicus [9] is given as 116.3 mmHg; with Rattus norvegicus [10], 105.7 mmHg; with Rattus norvegicus [11], 5 - 9%; in the series with Rattus norvegicus [12], 132 mmHg.

Take `COc1ccccc1OCCNCC(O)COc1cccc2c(=O)c3ccccc3oc12.Cl` (racemic): the Activity in the series on Rattus norvegicus [13] is given as 7 - 14%.

Turning to `COc1ccccc1CNCC(O)COc1cccc2c(=O)c3ccccc3oc12.Cl` (racemic), in the series with Rattus norvegicus [14], the Activity is listed as 7%.

Turning to `COc1ccc(CCNCC(O)COc2cccc3c(=O)c4ccccc4oc23)cc1OC.Cl` (racemic), the Activity in the series on Rattus norvegicus [15] is given as 99.7 mmHg; with Rattus norvegicus [16], 8 - 16%; in the series on Rattus norvegicus [17], 101.5 mmHg; in the series on Rattus norvegicus [18], 130.7 mmHg; in the series on Rattus norvegicus [19], 100.7 mmHg; with Rattus norvegicus [20], 97.7 mmHg. Moreover, the Activity in the series on Rattus norvegicus [21] is 135 mmHg; in the series with Rattus norvegicus [22], 143.7 mmHg; with Rattus norvegicus [23], 9 - 12%. Also, the inhibition result in the series with Blood was “inactive”.

For the compound `CC(C)(C)NCC(O)COc1cccc2c(=O)c3ccccc3oc12.Cl` (racemic), the Time with Rattus norvegicus [24] was found to be 19.2 ms; in the series on Rattus norvegicus [25], 59.6 ms; in the series on Rattus norvegicus [26], 132.2 ms; in the series on Rattus norvegicus [27], 131 ms; in the series on Rattus norvegicus [28], 59.2 ms; with Rattus norvegicus [29], 57.6 ms. The Time in the series with Rattus norvegicus [31] was determined as 59.2 ms; in the series with Rattus norvegicus [33], 134.5 ms; with Rattus norvegicus [34], 19.6 ms; in the series with Rattus norvegicus [35], 58 ms; in the series on Rattus norvegicus [36] it was 19 ms. Further, the Activity in the series with Rattus norvegicus [30] is given as 290.6 bpm; in the series with Rattus norvegicus [32], 10%.
